According to patent US20230108906A1, “SUBSTITUTED BICYCLIC AND TRICYCLIC UREAS AND AMIDES, ANALOGUES THEREOF, AND METHODS USING SAME” (Arbutus Biopharma Corporation, priority 2019, published 2023):

System: HBV rcDNA in HepDE19 cells
Assay: HepDE19 assay with bDNA quantitation of HBV rcDNA
Format: cell-based, hepatitis B virus (HBV)
Conditions: Hepatitis B virus, HepDE19, 168 h, inhibition of rcDNA formation in HepDE19 cells (HepG2 derived), Tet-free medium, 7 day incubation, Quantigene 2.0 bDNA readout, top concentration 25 μM; read-out: DE-19bDNA EC50
Method in brief: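 Cytotoxicity run on replicate plates (5,000 cells/well, 4 days, ATP luminescence, CC50), while antiviral plates (50,000 cells/well) received compound for 7 days after tetracycline withdrawal to induce HBV replication. Top dose 25 μM, 8 points, 0.5% DMSO; rcDNA by branched-DNA assay, % inhibition fitted (4-parameter) for EC50 and EC90.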

Compound	EC50 [µM]
CN(C(=O)N1Cc2ccc(Cl)cc2C1)C1CNCc2[nH]c(=O)c3cc(F)c(F)cc3c21 (single isomer, unassigned) [Compound 226, 5-Chloro-N-(8,9-difluoro-6-oxo-1,2,3,4,5,6-hexahydrobenzo[c][1,7]naphthyridin-1-yl)-N-methylisoindoline-2-carboxamide]	21
CC(C)CN(C(=O)Nc1ccc(F)c(Cl)c1)C1CCCc2[nH]c(=O)cc(C(F)(F)F)c21 (centres unmarked) [Compound 1, 3-(3-Chloro-4-fluorophenyl)-1-isobutyl-1-(2-oxo-4-(trifluoromethyl)-1,2,5,6,7,8-hexahydroquinolin-5-yl)urea]	0.52

Same assay, conditions: Hepatitis B virus, HepDE19, 168 h, read-out: DE-19bDNA EC50 (uM), inhibition of rcDNA formation in HepDE19 cells (HepG2 derived), Tet-free medium, 7 day incubation, Quantigene 2.0 bDNA readout, top concentration 25 μM

Compound	EC50 [µM]
CN(C(=O)N1Cc2ccc(C(F)(F)F)cc2C1)C1CNCc2[nH]c(=O)c3cc(F)c(F)cc3c21 (single isomer, unassigned) [Compound 231, N-(8,9-Difluoro-6-oxo-1,2,3,4,5,6-hexahydrobenzo[c][1,7]naphthyridin-1-yl)-N-methyl-5-(trifluoromethyl)isoindoline-2-carboxamide]	≥ 25

Same assay, conditions: inhibition of rcDNA formation in HepDE19 cells (HepG2 derived), Tet-free medium, 7 day incubation, Quantigene 2.0 bDNA readout, top concentration 25 μM; read-out: DE-19bDNA EC50

Compound	EC50 [µM]
CN(C(=O)Nc1ccc(F)c(C#N)c1)C1C[S+]([O-])Cc2[nH]c(=O)c3cc(F)c(F)cc3c21 (single isomer, unassigned) [Compound 214, 3-(3-Cyano-4-fluorophenyl)-1-(8,9-difluoro-3-oxido-6-oxo-1,4,5,6-tetrahydro-2H-thiopyrano[3,4-c]isoquinolin-1-yl)-1-methylurea]	15
CN(C(=O)Nc1ccc(F)c(C(F)F)c1)C1CNCc2[nH]c(=O)c3cc(F)c(F)cc3c21 (single isomer, unassigned) [Compound 216, 1-(8,9-Difluoro-6-oxo-1,2,3,4,5,6-hexahydrobenzo[c][1,7]naphthyridin-1-yl)-3-(3-(difluoromethyl)-4-fluorophenyl)-1-methylurea]	3.5
CN(C(=O)Nc1ccc(F)c(C(F)F)c1)C1CNCc2[nH]c(=O)c3cc(F)c(F)cc3c21 (single isomer, unassigned) [Compound 217, 1-(8,9-Difluoro-6-oxo-1,2,3,4,5,6-hexahydrobenzo[c][1,7]naphthyridin-1-yl)-3-(3-(difluoromethyl)-4-fluorophenyl)-1-methylurea]	0.04
CN(C(=O)N1Cc2ccccc2C1)C1CNCc2[nH]c(=O)c3cc(F)c(F)cc3c21 (single isomer, unassigned) [Compound 222, N-(8,9-Difluoro-6-oxo-1,2,3,4,5,6-hexahydrobenzo[c][1,7]naphthyridin-1-yl)-N-methylisoindoline-2-carboxamide]	≥ 25
CN(C(=O)N1Cc2ccccc2C1)C1CNCc2[nH]c(=O)c3cc(F)c(F)cc3c21 (single isomer, unassigned) [Compound 223, N-(8,9-Difluoro-6-oxo-1,2,3,4,5,6-hexahydrobenzo[c][1,7]naphthyridin-1-yl)-N-methylisoindoline-2-carboxamide]	2.3
CN(C(=O)N1Cc2ccc(F)cc2C1)C1CNCc2[nH]c(=O)c3cc(F)c(F)cc3c21 (single isomer, unassigned) [Compound 224, N-(8,9-Difluoro-6-oxo-1,2,3,4,5,6-hexahydrobenzo[c][1,7]naphthyridin-1-yl)-5-fluoro-N-methylisoindoline-2-carboxamide]	≥ 25
CN(C(=O)N1Cc2ccc(F)cc2C1)C1CNCc2[nH]c(=O)c3cc(F)c(F)cc3c21 (single isomer, unassigned) [Compound 225, N-(8,9-Difluoro-6-oxo-1,2,3,4,5,6-hexahydrobenzo[c][1,7]naphthyridin-1-yl)-5-fluoro-N-methylisoindoline-2-carboxamide]	3.4
CN(C(=O)N1Cc2ccc(Cl)cc2C1)C1CNCc2[nH]c(=O)c3cc(F)c(F)cc3c21 (single isomer, unassigned) [Compound 227, 5-Chloro-N-(8,9-difluoro-6-oxo-1,2,3,4,5,6-hexahydrobenzo[c][1,7]naphthyridin-1-yl)-N-methylisoindoline-2-carboxamide]	12
CN(C(=O)N1Cc2ccc(Br)cc2C1)C1CNCc2[nH]c(=O)c3cc(F)c(F)cc3c21 (single isomer, unassigned) [Compound 228, 5-Bromo-N-(8,9-difluoro-6-oxo-1,2,3,4,5,6-hexahydrobenzo[c][1,7]naphthyridin-1-yl)-N-methylisoindoline-2-carboxamide]	15
CN(C(=O)N1Cc2ccc(Br)cc2C1)C1CNCc2[nH]c(=O)c3cc(F)c(F)cc3c21 (single isomer, unassigned) [Compound 229, 5-Bromo-N-(8,9-difluoro-6-oxo-1,2,3,4,5,6-hexahydrobenzo[c][1,7]naphthyridin-1-yl)-N-methylisoindoline-2-carboxamide]	6.7
CNc1nc2c(c3cc(F)c(F)cc13)C(N(C)C(=O)Nc1ccc(F)c(C(F)F)c1)COC2 (single isomer, unassigned) [Compound 235, 1-(8,9-Difluoro-6-(methylamino)-1,4-dihydro-2H-pyrano[3,4-c]isoquinolin-1-yl)-3-(3-(difluoromethyl)-4-fluorophenyl)-1-methylurea]	1.81
CNc1nc2c(c3cc(F)c(F)cc13)C(N(C)C(=O)Nc1ccc(F)c(C(F)F)c1)COC2 (single isomer, unassigned) [Compound 236, 1-(8,9-Difluoro-6-(methylamino)-1,4-dihydro-2H-pyrano[3,4-c]isoquinolin-1-yl)-3-(3-(difluoromethyl)-4-fluorophenyl)-1-methylurea]	0.01
CN(C(=O)Nc1ccc(F)c(C(F)F)c1)C1COCc2nc(NCCO)c3cc(F)c(F)cc3c21 (single isomer, unassigned) [Compound 237, 1-(8,9-Difluoro-6-((2-hydroxyethyl)amino)-1,4-dihydro-2H-pyrano[3,4-c]isoquinolin-1-yl)-3-(3-(difluoromethyl)-4-fluorophenyl)-1-methylurea]	2.62
CN(C(=O)Nc1ccc(F)c(C(F)F)c1)C1COCc2nc(NCCO)c3cc(F)c(F)cc3c21 (single isomer, unassigned) [Compound 238, 1-(8,9-Difluoro-6-((2-hydroxyethyl)amino)-1,4-dihydro-2H-pyrano[3,4-c]isoquinolin-1-yl)-3-(3-(difluoromethyl)-4-fluorophenyl)-1-methylurea]	0.02
CNc1nc2c(c3cc(F)c(F)cc13)C(N(C)C(=O)Nc1ccc(F)c(Cl)c1)COC2 (single isomer, unassigned) [Compound 241, 3-(3-Chloro-4-fluorophenyl)-1-(8,9-difluoro-6-(methylamino)-1,4-dihydro-2H-pyrano[3,4-c]isoquinolin-1-yl)-1-methylurea]	2.38
CNc1nc2c(c3cc(F)c(F)cc13)C(N(C)C(=O)Nc1ccc(F)c(Cl)c1)COC2 (single isomer, unassigned) [Compound 242, 3-(3-Chloro-4-fluorophenyl)-1-(8,9-difluoro-6-(methylamino)-1,4-dihydro-2H-pyrano[3,4-c]isoquinolin-1-yl)-1-methylurea]	0.02
CN(C(=O)Nc1ccc(F)c(Cl)c1)C1COCc2nc(NCCO)c3cc(F)c(F)cc3c21 (single isomer, unassigned) [Compound 245, 3-(3-Chloro-4-fluorophenyl)-1-(8,9-difluoro-6-((2-hydroxyethyl)amino)-1,4-dihydro-2H-pyrano[3,4-c]isoquinolin-1-yl)-1-methylurea]	4.2
CN(C(=O)Nc1ccc(F)c(Cl)c1)C1COCc2nc(NCCO)c3cc(F)c(F)cc3c21 (single isomer, unassigned) [Compound 246, 3-(3-Chloro-4-fluorophenyl)-1-(8,9-difluoro-6-((2-hydroxyethyl)amino)-1,4-dihydro-2H-pyrano[3,4-c]isoquinolin-1-yl)-1-methylurea]	0.02
CN(C(=O)Nc1ccc(F)c(C(F)F)c1)C1COCc2nc(NCCN)c3cc(F)c(F)cc3c21 (single isomer, unassigned) [Compound 247, 1-(6-((2-Aminoethyl)amino)-8,9-difluoro-1,4-dihydro-2H-pyrano[3,4-c]isoquinolin-1-yl)-3-(3-(difluoromethyl)-4-fluorophenyl)-1-methylurea]	0.08
CN(C(=O)Nc1ccc(F)c(C(F)F)c1)C1COCc2nc(NCCN)c3cc(F)c(F)cc3c21 (single isomer, unassigned) [Compound 248, 1-(6-((2-Aminoethyl)amino)-8,9-difluoro-1,4-dihydro-2H-pyrano[3,4-c]isoquinolin-1-yl)-3-(3-(difluoromethyl)-4-fluorophenyl)-1-methylurea]	3.2
CN(C(=O)Nc1ccc(F)c(Cl)c1)C1COCc2nc(NCCN)c3cc(F)c(F)cc3c21 (single isomer, unassigned) [Compound 249]	8.3
CN(C(=O)Nc1ccc(F)c(Cl)c1)C1COCc2nc(NCCN)c3cc(F)c(F)cc3c21 (single isomer, unassigned) [Compound 250]	0.27

Same assay, conditions: read-out: DE-19bDNA EC50; inhibition of rcDNA formation in HepDE19 cells (HepG2 derived), Tet-free medium, 7 day incubation, Quantigene 2.0 bDNA readout, top concentration 25 μM

Compound	EC50 [µM]
CN(C(=O)N1Cc2ccc(C(F)(F)F)cc2C1)C1CNCc2[nH]c(=O)c3cc(F)c(F)cc3c21 (single isomer, unassigned) [Compound 232, N-(8,9-Difluoro-6-oxo-1,2,3,4,5,6-hexahydrobenzo[c][1,7]naphthyridin-1-yl)-N-methyl-5-(trifluoromethyl)isoindoline-2-carboxamide]	20
